# What was measured:
# NCI-H460 (Lung) = test: In vitro one dose primary anticancer assay (NCI); format: cell-based, human; settings: one dose at 10^−4 molar concentration
# Procedure: (§1) In vitro biological activity studies were carried out at National Cancer Institute (USA).
# (§2) Compounds Ve and Vg were evaluated the primary anti-cancer activity (Table 1) and further Ve have been evaluated in vitro against sixty human tumour cells derived from nine cancer types (leukemia, non-small-cell lung, colon, CNS, melanoma, ovarian, prostate, and breast cancer). For each compound, dose response curves for each cell line were measured at a minimum of five concentrations at 10 fold dilutions. A protocol of 48 h continuous drug exposure was used and a sulforhodamine B (SRB) protein assay was used to estimate cell viability or growth. The concentration causing 50% cell growth inhibition (GI50), total cell growth inhibition (TGI 0% growth) and 50% cell death (LC50, −50% growth) compared with the control was calculated.
# MCF7 (Breast) = test: In vitro one dose primary anticancer assay (NCI); format: cell-based, human; settings: one dose at 10^−4 molar concentration
# Procedure: as §1, §2
# SF-268 (CNS) = test: In vitro one dose primary anticancer assay (NCI); format: cell-based, human; settings: one dose at 10^−4 molar concentration
# Procedure: as §1, §2
# sixty human tumour cells = test: NCI in vitro cytotoxicity, SRB assay, mean graph midpoints; format: cell-based; settings: 48 h continuous drug exposure, human tumour cell lines
# Procedure: as §1, §2
Structure (SMILES),Growth percentages (Lung) NCI-H460 (NCI-H460 (Lung)),Growth percentages (Breast) MCF7 (MCF7 (Breast)),Growth percentages (CNS) SF-268 (SF-268 (CNS)),Log10 TGI mean graph midpoint (MG_MID) (sixty human tumour cells)
"COc1cc2c(cc1OCCCC(=O)Nc1ccc3ccc4cccc5ccc1c3c45)N=C[C@@H]1CCCN1C2=O [Ve, 7-Methoxy-8-[N-(1″-pyrenyl)-propane-3′-carboxamide]-oxy-(11aS)-1,2,3,11a tetra-hydro-5H-pyrrolo[2,1-c][1,4]benzodiazepin-5-one]",11%,31%,70%,−6.89
"COc1cc2c(cc1OCCCCC(=O)Nc1ccc3ccc4cccc5ccc1c3c45)N=C[C@@H]1CCCN1C2=O [Vg, 7-Methoxy-8-[N-(1″-pyrenyl)-butane-4′-carboxamide]-oxy-(11aS)-1,2,3,11a-tetra-hydro-5H-pyrrolo[2,1-c][1,4]benzodiazepin-5-one]",106%,72%,131%,–

# From patent US6800622B1, “Pyrene-linked pyrrolo[2,1-c][1,4]benzodiazepine hybrids useful as anti-cancer agents” (Council of Scientific and Industrial Research, priority 2003, dated 2004)
